This passage reports AC50 results from ChEMBL document CHEMBL5291721, “A preclinical secondary pharmacology resource illuminates target-adverse drug reaction associations of marketed drugs” (Nat Commun, 2023).

The target of assay [1] is T1, Muscarinic acetylcholine receptor M1 (Homo sapiens, UniProt P11229).
T1 sequence (P11229 whole entry): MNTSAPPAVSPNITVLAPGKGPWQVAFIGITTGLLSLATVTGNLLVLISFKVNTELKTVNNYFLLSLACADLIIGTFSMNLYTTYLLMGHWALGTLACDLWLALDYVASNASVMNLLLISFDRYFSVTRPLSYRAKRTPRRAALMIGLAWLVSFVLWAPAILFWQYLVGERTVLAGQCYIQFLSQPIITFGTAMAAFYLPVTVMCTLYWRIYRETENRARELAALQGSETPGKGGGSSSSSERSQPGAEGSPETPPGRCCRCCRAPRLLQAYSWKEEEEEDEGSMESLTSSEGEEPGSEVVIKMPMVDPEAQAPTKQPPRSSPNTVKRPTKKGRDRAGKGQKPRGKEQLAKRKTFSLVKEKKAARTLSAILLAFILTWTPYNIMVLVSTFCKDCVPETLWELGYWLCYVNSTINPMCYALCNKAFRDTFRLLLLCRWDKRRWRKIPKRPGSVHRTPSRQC
Type of assay: functional.

In assay [2] the target is T2, Muscarinic acetylcholine receptor M2 (Homo sapiens, UniProt P08172).
T2 sequence (P08172 whole entry): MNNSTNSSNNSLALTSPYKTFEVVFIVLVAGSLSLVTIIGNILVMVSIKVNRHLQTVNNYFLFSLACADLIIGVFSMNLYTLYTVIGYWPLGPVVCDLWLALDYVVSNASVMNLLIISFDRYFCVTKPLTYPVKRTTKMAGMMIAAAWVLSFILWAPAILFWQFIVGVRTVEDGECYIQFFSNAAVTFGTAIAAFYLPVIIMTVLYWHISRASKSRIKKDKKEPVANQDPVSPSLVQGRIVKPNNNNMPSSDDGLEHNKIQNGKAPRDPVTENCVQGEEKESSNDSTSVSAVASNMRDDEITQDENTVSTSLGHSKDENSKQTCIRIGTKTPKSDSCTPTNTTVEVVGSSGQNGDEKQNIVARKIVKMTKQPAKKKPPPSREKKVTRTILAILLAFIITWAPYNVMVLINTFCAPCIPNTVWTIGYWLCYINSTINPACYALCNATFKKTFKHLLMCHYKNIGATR
The class given is functional, cell-based.

Assay [3] addresses Sodium-dependent dopamine transporter (Homo sapiens, UniProt Q01959).
A further assay addresses Vasopressin V1a receptor (Homo sapiens, UniProt P37288).
Assay [4] concerns the target T3, Alpha-2C adrenergic receptor (Homo sapiens, UniProt P18825).
T3 sequence (P18825 whole entry): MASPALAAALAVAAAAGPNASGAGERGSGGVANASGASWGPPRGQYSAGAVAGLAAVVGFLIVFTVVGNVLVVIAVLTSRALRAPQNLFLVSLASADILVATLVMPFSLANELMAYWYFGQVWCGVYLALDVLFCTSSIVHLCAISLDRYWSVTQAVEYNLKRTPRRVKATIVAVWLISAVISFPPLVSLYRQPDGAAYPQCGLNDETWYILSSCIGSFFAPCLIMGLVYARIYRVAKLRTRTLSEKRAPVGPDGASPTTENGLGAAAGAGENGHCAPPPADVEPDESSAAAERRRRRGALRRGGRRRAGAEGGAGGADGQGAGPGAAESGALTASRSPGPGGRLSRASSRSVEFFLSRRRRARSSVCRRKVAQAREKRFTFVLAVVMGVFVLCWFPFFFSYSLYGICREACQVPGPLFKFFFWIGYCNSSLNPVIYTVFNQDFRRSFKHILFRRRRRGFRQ
The class given is functional.

For assay [5], the target named is T4, Neuropeptide Y receptor type 1 (Homo sapiens, UniProt P25929).
T4 sequence (P25929 whole entry): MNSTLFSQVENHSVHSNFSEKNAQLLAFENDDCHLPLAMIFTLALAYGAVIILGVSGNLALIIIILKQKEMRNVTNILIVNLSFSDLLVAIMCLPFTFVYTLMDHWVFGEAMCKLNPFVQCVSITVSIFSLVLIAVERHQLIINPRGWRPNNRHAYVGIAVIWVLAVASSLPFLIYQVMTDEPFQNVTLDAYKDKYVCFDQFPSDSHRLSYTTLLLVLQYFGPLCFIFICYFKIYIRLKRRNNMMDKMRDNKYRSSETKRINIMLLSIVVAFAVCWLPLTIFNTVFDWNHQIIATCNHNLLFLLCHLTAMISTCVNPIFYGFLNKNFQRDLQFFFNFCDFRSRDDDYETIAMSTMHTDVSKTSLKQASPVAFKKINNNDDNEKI

The target in assay [6] is T5, 5-hydroxytryptamine receptor 2C (Homo sapiens, UniProt P28335).
T5 sequence (P28335 whole entry): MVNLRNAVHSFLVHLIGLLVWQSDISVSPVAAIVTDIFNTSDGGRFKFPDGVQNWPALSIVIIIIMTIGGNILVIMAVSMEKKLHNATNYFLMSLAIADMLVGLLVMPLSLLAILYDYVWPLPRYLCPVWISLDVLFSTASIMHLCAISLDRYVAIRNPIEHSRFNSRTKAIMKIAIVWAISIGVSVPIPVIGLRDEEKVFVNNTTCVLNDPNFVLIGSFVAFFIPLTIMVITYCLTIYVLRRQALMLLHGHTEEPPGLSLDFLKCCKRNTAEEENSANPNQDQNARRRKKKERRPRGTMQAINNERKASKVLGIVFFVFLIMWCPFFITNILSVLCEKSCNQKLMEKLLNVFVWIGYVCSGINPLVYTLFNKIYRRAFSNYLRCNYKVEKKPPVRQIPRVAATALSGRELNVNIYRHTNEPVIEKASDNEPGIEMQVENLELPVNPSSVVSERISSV

In assay [7] the target is 5-hydroxytryptamine receptor 2B (Homo sapiens, UniProt P41595). The class given is functional, cell-based.
The target in assay [8] is Delta-type opioid receptor (Homo sapiens, UniProt P41143).
The target of assay [9] is Kappa-type opioid receptor (Homo sapiens, UniProt P41145).
A further assay has as its target Histamine H3 receptor (Homo sapiens, UniProt Q9Y5N1).
Assay [10] addresses Voltage-gated inwardly rectifying potassium channel KCNH2 (Homo sapiens, UniProt Q12809). Type of assay: functional. The settings on record: read-out: AC50.
Further: assay procedure not described here.

Sequence of Vasopressin V1a receptor (P37288 whole entry): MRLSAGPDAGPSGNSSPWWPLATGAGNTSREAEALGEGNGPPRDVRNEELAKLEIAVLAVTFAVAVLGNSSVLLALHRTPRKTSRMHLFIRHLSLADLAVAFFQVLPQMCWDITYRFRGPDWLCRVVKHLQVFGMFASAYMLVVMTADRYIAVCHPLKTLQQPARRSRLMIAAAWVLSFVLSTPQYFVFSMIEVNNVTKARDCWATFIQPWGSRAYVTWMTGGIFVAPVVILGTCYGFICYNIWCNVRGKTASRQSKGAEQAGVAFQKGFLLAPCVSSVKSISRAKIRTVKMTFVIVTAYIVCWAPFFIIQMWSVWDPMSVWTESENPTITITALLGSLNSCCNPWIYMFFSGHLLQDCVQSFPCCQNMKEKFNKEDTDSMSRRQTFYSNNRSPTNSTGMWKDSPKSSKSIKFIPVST
Sequence of Voltage-gated inwardly rectifying potassium channel KCNH2 (Q12809 whole entry): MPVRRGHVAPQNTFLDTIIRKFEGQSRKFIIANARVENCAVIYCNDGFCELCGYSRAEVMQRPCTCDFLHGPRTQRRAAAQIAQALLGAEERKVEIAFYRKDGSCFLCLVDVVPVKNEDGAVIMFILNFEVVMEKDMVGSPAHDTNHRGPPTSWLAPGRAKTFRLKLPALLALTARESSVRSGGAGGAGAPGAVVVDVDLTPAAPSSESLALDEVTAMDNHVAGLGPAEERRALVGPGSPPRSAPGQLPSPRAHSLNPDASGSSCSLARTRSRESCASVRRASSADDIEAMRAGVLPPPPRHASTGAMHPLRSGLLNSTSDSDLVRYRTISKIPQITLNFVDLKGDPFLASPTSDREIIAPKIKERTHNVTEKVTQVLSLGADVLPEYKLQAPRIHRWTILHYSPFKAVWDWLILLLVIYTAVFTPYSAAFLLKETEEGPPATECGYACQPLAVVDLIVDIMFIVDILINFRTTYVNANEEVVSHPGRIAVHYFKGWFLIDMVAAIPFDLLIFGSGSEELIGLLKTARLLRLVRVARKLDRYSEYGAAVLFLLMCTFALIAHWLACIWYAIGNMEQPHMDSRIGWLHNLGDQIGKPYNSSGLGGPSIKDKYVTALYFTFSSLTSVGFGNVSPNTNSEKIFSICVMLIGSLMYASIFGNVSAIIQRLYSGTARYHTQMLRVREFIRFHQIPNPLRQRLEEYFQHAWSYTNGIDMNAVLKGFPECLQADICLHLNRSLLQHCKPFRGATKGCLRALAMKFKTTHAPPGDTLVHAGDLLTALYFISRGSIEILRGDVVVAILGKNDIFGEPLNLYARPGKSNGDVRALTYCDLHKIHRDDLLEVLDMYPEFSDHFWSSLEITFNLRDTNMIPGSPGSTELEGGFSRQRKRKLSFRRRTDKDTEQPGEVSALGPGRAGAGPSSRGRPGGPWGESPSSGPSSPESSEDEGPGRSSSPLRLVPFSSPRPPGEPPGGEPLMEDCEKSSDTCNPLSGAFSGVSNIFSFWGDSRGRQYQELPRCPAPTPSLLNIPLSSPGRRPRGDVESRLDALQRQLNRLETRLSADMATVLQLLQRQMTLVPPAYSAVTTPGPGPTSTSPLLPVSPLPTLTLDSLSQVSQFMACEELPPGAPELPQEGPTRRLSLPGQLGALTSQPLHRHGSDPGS
Sequence of Sodium-dependent dopamine transporter (Q01959 whole entry): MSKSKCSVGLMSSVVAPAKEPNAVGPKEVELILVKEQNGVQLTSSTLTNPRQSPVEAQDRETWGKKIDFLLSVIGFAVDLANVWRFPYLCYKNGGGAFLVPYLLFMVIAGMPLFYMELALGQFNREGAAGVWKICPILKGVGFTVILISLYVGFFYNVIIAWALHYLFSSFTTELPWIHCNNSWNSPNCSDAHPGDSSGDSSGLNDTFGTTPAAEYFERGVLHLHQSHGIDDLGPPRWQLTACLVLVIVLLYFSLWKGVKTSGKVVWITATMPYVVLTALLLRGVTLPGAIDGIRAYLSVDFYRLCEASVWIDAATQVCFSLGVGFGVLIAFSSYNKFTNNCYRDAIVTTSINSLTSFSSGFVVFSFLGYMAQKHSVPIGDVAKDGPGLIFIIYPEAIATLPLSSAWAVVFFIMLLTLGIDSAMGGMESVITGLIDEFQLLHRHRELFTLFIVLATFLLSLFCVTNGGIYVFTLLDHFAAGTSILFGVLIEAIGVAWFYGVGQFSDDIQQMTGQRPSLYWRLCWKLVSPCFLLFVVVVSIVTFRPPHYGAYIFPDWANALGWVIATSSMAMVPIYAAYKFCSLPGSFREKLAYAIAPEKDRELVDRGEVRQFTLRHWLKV
Sequence of Delta-type opioid receptor (P41143 whole entry): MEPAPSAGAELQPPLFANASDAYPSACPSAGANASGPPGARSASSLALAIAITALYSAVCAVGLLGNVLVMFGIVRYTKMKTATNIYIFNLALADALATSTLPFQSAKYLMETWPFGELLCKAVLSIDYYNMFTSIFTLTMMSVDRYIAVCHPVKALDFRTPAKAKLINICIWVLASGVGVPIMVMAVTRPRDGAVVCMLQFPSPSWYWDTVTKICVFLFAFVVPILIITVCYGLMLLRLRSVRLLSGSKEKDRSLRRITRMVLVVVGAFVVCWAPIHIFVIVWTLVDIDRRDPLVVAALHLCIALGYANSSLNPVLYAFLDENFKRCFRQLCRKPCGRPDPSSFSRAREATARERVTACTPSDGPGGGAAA
Sequence of Kappa-type opioid receptor (P41145 whole entry): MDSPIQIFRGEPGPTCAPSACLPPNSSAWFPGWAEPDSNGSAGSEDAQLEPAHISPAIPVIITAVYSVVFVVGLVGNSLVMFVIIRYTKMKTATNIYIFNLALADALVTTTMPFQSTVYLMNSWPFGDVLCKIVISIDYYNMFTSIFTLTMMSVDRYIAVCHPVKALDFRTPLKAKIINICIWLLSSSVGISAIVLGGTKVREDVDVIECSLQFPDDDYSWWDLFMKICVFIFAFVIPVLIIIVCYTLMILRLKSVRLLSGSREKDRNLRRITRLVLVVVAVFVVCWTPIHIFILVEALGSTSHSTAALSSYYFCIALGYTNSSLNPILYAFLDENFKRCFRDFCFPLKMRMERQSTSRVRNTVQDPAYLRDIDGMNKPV
Sequence of 5-hydroxytryptamine receptor 2B (P41595 whole entry): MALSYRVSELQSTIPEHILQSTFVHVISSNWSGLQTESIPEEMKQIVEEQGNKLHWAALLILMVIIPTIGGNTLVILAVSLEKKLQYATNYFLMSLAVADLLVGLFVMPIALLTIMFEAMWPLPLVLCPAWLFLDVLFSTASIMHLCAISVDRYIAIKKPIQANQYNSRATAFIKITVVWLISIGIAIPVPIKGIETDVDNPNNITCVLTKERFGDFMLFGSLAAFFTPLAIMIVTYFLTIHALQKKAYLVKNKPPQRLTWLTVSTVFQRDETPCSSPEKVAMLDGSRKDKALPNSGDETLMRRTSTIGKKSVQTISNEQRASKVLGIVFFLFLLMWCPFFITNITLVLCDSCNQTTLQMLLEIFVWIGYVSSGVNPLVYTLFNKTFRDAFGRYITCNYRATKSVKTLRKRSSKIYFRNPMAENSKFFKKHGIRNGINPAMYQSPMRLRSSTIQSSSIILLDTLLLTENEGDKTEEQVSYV
Sequence of Histamine H3 receptor (Q9Y5N1 whole entry): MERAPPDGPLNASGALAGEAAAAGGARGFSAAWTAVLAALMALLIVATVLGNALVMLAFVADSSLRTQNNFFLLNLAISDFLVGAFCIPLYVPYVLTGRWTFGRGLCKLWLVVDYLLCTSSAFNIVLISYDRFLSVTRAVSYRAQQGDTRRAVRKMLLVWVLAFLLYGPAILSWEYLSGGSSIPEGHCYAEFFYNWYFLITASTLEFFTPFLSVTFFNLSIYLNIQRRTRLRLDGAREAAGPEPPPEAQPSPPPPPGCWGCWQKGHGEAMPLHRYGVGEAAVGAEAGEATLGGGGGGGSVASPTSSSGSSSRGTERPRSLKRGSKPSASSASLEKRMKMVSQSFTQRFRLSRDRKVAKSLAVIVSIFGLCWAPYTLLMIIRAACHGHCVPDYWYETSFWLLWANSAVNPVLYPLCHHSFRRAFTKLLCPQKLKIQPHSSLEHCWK

Consider `CCCC(CCC)C(=O)O[C@H]1C[C@H]2CC[C@@H](C1)[N+]2(C)C` [ANISOTROPINE], for which the AC50 in assay [1] is 0.17 µM; in assay [2], more than 30 µM; in [3], more than 30 µM; at Vasopressin V1a receptor, more than 30 µM; in assay [4], more than 30 µM; in assay [5], more than 30 µM. The AC50 in assay [6] is more than 30 µM; in assay [7], more than 30 µM; in assay [8], more than 30 µM; in assay [9] it was more than 30 µM; at Histamine H3 receptor, more than 30 µM; in [10], 2.1 µM.
Take `CCCCCN(C)CCC(O)(P(=O)(O)O)P(=O)(O)O` [IBANDRONIC ACID]: the AC50 (in [1]; in [2]; in assay [3]; at Vasopressin V1a receptor; in assay [4]; in assay [5]) was more than 30 µM throughout. Further, the AC50 (in assay [6]; in [7]; in assay [8]; in assay [9]; at Histamine H3 receptor; in assay [10]) was more than 30 µM in each case.
Turning to `CCC(C(=O)O)c1ccc(CC(C)C)cc1` (configuration not stated) [BUTIBUFEN], the AC50 (in assay [1]; in [2]; in [3]; on Vasopressin V1a receptor; in assay [4]; in assay [5]) was more than 30 µM each time. Besides, the AC50 (in assay [6]; in [7]; in assay [8]; in assay [9]; at Histamine H3 receptor; in assay [10]) was more than 30 µM in each case.
`CCCCCCCCCCCC[N+](C)(C)CCOc1ccccc1` [DOMIPHEN]: the AC50 is 8.9 µM in assay [1]; 14 µM in [2]; 2.5 µM in assay [3]; 11 µM on Vasopressin V1a receptor; 4.2 µM in assay [4]; 4.4 µM in [5]. Moreover, the AC50 is 1.1 µM in assay [6]; more than 30 µM in assay [7]; more than 30 µM in assay [8]; 3.6 µM in assay [9]; 12 µM at Histamine H3 receptor; 1.7 µM in assay [10].
With `CCCCC(C)(O)C/C=C/[C@H]1[C@H](O)CC(=O)[C@@H]1CCCCCCC(=O)OC` (some centres not stated) [MISOPROSTOL], the AC50 (in assay [1]; in [2]; in [3]; at Vasopressin V1a receptor; in assay [4]; in [5]) was more than 30 µM in each case. The AC50 in assay [6] was more than 10 µM; in assay [7], more than 30 µM; in assay [8] it was more than 30 µM; in assay [9] it was more than 30 µM; at Histamine H3 receptor, more than 30 µM; in assay [10] it was more than 30 µM.
`CCCCCCCCOc1ccccc1C(=O)Nc1ccc(C(=O)OCC[N+](C)(CC)CC)cc1` [OTILONIUM BROMIDE]: the AC50 in assay [1] was 1.3 µM; in [2], 16 µM; in assay [3] it was 4.4 µM; on Vasopressin V1a receptor, 13 µM; in [4], 8.2 µM; in assay [5], 10 µM. Moreover, the AC50 is 1.1 µM in assay [6]; 12 µM in assay [7]; 29 µM in [8]; 3.4 µM in [9]; 17 µM at Histamine H3 receptor; 0.66 µM in assay [10].
For the compound `C#C[C@]1(O)CC[C@H]2[C@@H]3CCC4=CCCC[C@@H]4[C@H]3CC[C@@]21C` [LYNESTRENOL], the AC50 (in assay [1]; in [2]; in assay [3]; on Vasopressin V1a receptor; in [4]; in [5]) was more than 30 µM in each case. The AC50 in assay [6] is more than 30 µM; in assay [7], more than 30 µM; in assay [8], more than 30 µM; in [9], 1.5 µM; at Histamine H3 receptor, more than 30 µM; in assay [10], more than 30 µM.
Take `CCC1(C2=CCCCCC2)C(=O)NC(=O)NC1=O` [HEPTABARBITAL]: the AC50 (in assay [1]; in assay [2]; in assay [3]; on Vasopressin V1a receptor; in assay [4]; in [5]) was more than 10 µM throughout. The AC50 is more than 30 µM in assay [6]; more than 10 µM in [7]; more than 30 µM in assay [8]; more than 10 µM in [9]; more than 10 µM on Histamine H3 receptor; more than 30 µM in [10].
For `COc1ccc(C(=O)N2CCN(c3ccc4c(c3)CCC(=O)N4)CC2)cc1OC` [VESNARINONE], the AC50 (in assay [1]; in [2]; in [3]; at Vasopressin V1a receptor; in assay [4]; in [5]) was more than 30 µM throughout. Moreover, the AC50 (in [6]; in assay [7]; in assay [8]; in assay [9]; at Histamine H3 receptor; in [10]) was more than 30 µM in each case.
Turning to `CN1CC(=O)N2[C@H](c3ccc4c(c3)OCO4)c3[nH]c4ccccc4c3C[C@@H]2C1=O`, the AC50 is more than 10 µM in assay [1]; more than 10 µM in assay [2]; more than 30 µM in assay [3]; more than 30 µM on Vasopressin V1a receptor; more than 10 µM in [4]; more than 30 µM in assay [5]. Moreover, the half-maximal activity concentration (AC50) in assay [6] was more than 30 µM; in assay [7], more than 10 µM; in [8], more than 30 µM; in [9], more than 10 µM; at Histamine H3 receptor, more than 10 µM; in [10], more than 30 µM.
With `CC/C=C\C/C=C\C/C=C\CCCCCCCC(=O)O` [LINOLENIC ACID], the concentration at half-maximal activity (AC50) (in assay [1]; in assay [2]; in [3]; at Vasopressin V1a receptor; in assay [4]; in assay [5]) was more than 30 µM in each case. Also, the half-maximal activity concentration (AC50) (in assay [6]; in [7]; in assay [8]; in assay [9]; at Histamine H3 receptor; in [10]) was more than 30 µM in each case.

Usually AC50 stands for the concentration giving half of the maximal activity seen.
